Assay results reported in patent publication US6589954B1, “Compounds and methods to treat cardiac failure and other disorders” (Scios, Inc., priority 1998, dated 2003).
“And” between values parts separate entries of the source, which are not always exact repeats. Equal values may be shown once. Read-outs that look alike come from different tables or passages of the source.

Key:
Type in all cases: biochemical
[1] = target: p38α (Homo sapiens, UniProt Q16539); assay: Assay for p38 kinase inhibition (p38α);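 note: radiometric p38 kinase assay, peptide substrate phosphorylation with γ-32P-ATP, 40 min at room temperature, incorporated counts measured by scintillation, inhibition relative to uninhibited kinase activity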
p38α, sequence (Q16539 whole entry): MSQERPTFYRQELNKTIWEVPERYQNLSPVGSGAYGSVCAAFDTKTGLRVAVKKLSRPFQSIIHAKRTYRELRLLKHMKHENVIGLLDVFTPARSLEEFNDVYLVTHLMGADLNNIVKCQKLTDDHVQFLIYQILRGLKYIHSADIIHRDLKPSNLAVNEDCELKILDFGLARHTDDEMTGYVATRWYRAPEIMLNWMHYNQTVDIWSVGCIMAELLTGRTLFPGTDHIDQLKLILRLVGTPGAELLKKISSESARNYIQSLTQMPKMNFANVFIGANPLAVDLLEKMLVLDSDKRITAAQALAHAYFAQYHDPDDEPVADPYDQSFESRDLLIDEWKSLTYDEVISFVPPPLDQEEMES

[2] = target: p38β (Homo sapiens, UniProt Q15759); assay: p38 kinase inhibition assay, p38β
p38β, sequence (Q15759 whole entry): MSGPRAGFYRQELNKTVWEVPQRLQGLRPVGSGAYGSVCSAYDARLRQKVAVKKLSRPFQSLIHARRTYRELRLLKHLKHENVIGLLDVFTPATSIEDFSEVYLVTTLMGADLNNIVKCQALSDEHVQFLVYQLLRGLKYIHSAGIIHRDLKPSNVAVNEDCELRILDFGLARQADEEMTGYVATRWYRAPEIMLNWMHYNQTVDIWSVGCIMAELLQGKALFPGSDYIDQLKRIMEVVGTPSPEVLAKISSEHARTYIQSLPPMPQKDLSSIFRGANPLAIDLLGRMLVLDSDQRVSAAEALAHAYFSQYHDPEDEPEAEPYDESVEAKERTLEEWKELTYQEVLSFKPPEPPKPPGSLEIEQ
Procedure: The compounds to be tested were solubilized in DMSO and diluted into water to the desired concentrations. The p38 kinase was diluted to 10 μg/ml into a buffer containing 20 mM MOPS, pH 7.0, 25 mM beta-glycerol phosphate, 2 mg/ml gelatin, 0.5 mM EGTA, and 4 mM DTT.
The reaction was carried out by mixing 20 μl test compound with 10 μl of a substrate cocktail containing 500 μg/ml peptide substrate and 0.2 mM ATP (+200 μCi/ml gamma-32P-ATP) in a 4×assay buffer. The reaction was initiated by the addition of 10 μl of p38 kinase. Final assay conditions were 25 mM MOPS, pH 7.0, 26.25 mM beta-glycerol phosphate, 80 mM KCl, 22 mM MgCl2, 3 mM MgSO4, 1 mg/ml gelatin, 0.625 mM. […] After a 40 minute incubation at room temperature, the reaction was stopped by the addition of 10 μl per reaction of 0.25 M phosphoric acid.
A portion of the reaction was spotted onto a disk of P81 phosphocellulose paper, the filters were dried for 2 minutes and then washed 4× in 75 mM H3PO4. The filters were rinsed briefly in 95% ethanol, dried, then placed in scintillation vials with liquid scintillation cocktail.
Alternatively, the substrate is previously biotinylated and the resulting reactions are spotted on SAM^2TM streptavidin filter squares (Promega). The filters are washed 4× in 2M NaCl, 4× in 2M NaCl with 1% phosphoric acid, 2× in water, and briefly in 95% ethanol. The filter squares are dried and placed in scintillation vials with liquid scintillation cocktail.
(§1) Counts incorporated are determined on a scintillation counter. Relative enzyme activity is calculated by subtracting background counts (counts measured in the absence of enzyme) from each result, and comparing the resulting counts to those obtained in the absence of inhibitor. IC50 values were determined with curve-fitting plots available with common software packages. Approximate IC50 values were calculated using formula
(§2) where A=fractional activity and i=total inhibitor concentration.
Activity with regard to p38β was also tested for compounds of the invention to determine the influence of the position of the piperidinyl or piperazinyl substituent. The influence of substitution on the benzyl moiety attached to the 4-position of the piperazine or piperidine was also tested.

[3] = target: DNA-PK (Homo sapiens, UniProt P78527); assay: Kinase specificity, DNA-PK; details: approximate IC50; tested at 50 μM, calculated using the formula in Example 22
Procedure: as §1, §2
(§3) The specificity of the compounds of the invention was also tested with respect to other kinases, including p38-γ, ERK-2, PKA, PKC, cdc-2, EGF-R, and DNA-PK as shown in Table 4. The compounds tested are the 4-benzylpiperidinyl indole-5- and 6-carboximides with the number indicating the ring position of the carboxamide.
(§4) The exception is for p38α values where the IC50 values were determined from concentration dependent curve fitting analysis.

[4] = target: cdc2 (Homo sapiens, UniProt P06493); assay: Kinase specificity, cdc2; details: approximate IC50; tested at 50 μM, calculated using the formula in Example 22
cdc2, sequence (P06493 whole entry, species assumed): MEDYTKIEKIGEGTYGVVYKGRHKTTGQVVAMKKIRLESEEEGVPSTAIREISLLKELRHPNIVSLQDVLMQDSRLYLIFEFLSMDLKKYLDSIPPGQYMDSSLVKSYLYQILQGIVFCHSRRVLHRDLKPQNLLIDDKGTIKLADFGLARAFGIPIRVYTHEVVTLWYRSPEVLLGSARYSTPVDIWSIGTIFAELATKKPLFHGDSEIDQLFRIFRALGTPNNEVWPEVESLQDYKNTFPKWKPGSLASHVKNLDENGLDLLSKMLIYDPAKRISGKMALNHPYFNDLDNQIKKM
cdc2, sequence (P14635 whole entry partner, species assumed): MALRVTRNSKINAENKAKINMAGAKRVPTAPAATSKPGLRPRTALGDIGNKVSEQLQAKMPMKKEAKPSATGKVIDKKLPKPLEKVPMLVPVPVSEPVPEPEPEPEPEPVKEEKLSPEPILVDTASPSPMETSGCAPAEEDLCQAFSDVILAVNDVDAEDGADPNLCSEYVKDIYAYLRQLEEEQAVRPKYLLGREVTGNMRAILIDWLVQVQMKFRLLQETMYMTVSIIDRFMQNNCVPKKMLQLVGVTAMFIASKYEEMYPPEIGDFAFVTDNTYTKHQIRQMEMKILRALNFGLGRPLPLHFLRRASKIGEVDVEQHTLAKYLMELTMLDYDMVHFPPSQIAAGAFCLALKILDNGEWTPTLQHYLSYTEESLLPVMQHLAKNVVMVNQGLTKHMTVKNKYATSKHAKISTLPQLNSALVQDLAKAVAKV
Procedure: as §1, §2, §3, §4

[5] = target: PKA (Homo sapiens, UniProt P17612); assay: Kinase specificity, PKA; details: approximate IC50; tested at 50 μM, calculated using the formula in Example 22
Procedure: as §1, §2, §3, §4

[6] = target: PKC; assay: Kinase specificity, PKC; details: approximate IC50; tested at 50 μM, calculated using the formula in Example 22
Procedure: as §1, §2, §3, §4

[7] = target: ERK-2 (Homo sapiens, UniProt P28482); assay: Kinase specificity, ERK-2; details: approximate IC50; tested at 50 μM, calculated using the formula in Example 22
ERK-2, sequence (P28482 whole entry, species assumed): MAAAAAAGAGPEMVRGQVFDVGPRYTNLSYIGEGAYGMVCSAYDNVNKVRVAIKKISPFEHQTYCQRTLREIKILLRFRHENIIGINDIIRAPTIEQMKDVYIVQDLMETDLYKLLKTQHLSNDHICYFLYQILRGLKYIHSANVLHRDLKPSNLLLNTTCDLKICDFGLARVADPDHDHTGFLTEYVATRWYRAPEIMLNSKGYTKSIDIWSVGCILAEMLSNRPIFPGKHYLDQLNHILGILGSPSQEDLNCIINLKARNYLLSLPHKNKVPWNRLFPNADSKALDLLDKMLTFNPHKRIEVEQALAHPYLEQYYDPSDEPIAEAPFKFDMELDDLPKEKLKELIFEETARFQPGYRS
Procedure: as §1, §2, §3, §4

[8] = target: T1, p38-γ (Homo sapiens, UniProt P53778); assay: Kinase specificity, p38-γ; details: approximate IC50; tested at 50 μM, calculated using the formula in Example 22
T1 sequence (P53778 1-367): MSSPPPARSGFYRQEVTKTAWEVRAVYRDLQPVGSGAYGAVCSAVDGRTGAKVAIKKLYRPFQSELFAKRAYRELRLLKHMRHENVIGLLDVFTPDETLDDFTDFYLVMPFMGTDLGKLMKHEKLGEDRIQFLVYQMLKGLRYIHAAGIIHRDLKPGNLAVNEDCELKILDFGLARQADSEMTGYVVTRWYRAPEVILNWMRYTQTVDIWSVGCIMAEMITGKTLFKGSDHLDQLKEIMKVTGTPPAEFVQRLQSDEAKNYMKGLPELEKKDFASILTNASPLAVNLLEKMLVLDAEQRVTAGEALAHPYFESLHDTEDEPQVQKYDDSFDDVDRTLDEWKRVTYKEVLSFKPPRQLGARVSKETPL
Procedure: as §1, §2, §3, §4

[9] = target: EGF-R (Homo sapiens, UniProt P00533); assay: Kinase specificity, EGF-R; details: approximate IC50; tested at 50 μM, calculated using the formula in Example 22
EGF-R, sequence (P00533 25-1210, species assumed): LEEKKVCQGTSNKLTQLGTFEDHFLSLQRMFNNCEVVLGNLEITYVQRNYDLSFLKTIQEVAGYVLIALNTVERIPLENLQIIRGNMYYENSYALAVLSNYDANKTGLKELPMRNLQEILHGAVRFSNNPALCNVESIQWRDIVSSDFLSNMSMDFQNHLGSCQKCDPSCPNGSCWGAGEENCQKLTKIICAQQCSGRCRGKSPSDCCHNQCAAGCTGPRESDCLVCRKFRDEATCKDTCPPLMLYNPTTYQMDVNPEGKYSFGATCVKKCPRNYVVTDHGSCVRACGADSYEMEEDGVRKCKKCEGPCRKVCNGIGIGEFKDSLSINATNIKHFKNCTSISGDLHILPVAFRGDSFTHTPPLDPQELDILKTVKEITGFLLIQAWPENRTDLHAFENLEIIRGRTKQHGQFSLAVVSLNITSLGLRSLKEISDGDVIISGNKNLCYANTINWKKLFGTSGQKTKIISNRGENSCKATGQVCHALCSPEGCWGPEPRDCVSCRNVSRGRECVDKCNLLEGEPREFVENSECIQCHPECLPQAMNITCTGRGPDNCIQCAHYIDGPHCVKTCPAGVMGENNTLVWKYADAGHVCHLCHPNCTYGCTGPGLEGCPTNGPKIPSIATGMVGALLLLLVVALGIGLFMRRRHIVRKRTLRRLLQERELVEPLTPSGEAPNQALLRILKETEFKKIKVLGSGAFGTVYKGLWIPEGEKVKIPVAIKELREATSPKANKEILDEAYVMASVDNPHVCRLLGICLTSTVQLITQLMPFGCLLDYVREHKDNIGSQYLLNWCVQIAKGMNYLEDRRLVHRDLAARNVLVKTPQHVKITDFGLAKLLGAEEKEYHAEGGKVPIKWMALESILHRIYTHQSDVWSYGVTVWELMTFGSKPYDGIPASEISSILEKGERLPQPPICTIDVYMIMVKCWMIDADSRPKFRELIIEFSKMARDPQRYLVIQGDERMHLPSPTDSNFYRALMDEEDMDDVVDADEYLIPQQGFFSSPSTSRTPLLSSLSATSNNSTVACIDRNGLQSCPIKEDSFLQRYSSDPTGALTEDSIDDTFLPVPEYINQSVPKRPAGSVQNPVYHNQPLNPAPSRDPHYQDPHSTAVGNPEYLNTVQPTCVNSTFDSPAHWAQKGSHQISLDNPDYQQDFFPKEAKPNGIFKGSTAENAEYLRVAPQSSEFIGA
Procedure: as §1, §2, §3, §4

[10] = Table 5, read-out: IC50, inhibition of p38α
[11] = at 50 μM concentration of the compound, Table 3
[12] = Table 1, by ring position of the piperidinyl or piperazinyl substituent on indole, read-out: IC50 for inhibition of p38α
[13] = at 50 μM concentration of the compound, Table 3, read-out: percent inhibition of p38β activity

Compound | IC50 [1, 10] | inhibition at 50 µM [2, 13] | further results
CC(=O)N1CCC(Cc2ccc(F)cc2)C1 (stereo not shown) | – | – | inhibition at 1 µM ([1]; at 1 μM): 51%
O=C(c1ccc2[nH]cnc2c1)N1CCC(Cc2ccc(F)cc2)CC1 | 390 nM | – | –
4-(4-Chlorobenzyl)piperazinyl-indole-5-carboxamide [Piperazinyl 5 4-Cl] | – | – | percent inhibition of p38β activity [2, 11]: 77%
CCN(CC)CCn1ccc2cc(C(=O)N3CCC(Cc4ccc(F)cc4)CC3)ccc21 [1-(Diethylamino)-ethyl-(4′-fluoro-4-benzylpiperidinyl)-indole-5-carboxamide] | 354 nM | – | –
CCN(CC)CCCn1ccc2cc(C(=O)N3CCC(Cc4ccccc4)CC3)ccc21 [1-(Diethylamino)n-propyl-(4-benzylpiperidinyl)-indole-5-carboxamide] | 474 nM | – | –
CCN(CC)CCn1ccc2cc(C(=O)N3CCC(Cc4ccccc4)CC3)c(OC)cc21 [1-(Diethylaminoethyl)-6-methoxy-(4-benzylpiperidinyl)-indole-5-carboxamide] | 184 nM | – | –
O=C(c1ccc2c(C(=O)C(F)(F)F)c[nH]c2c1)N1CCC(Cc2ccccc2)CC1 [3-trifluoroacetyl-(4-benzylpiperidinyl)indole-6-carboxamide] | – | – | inhibition of p38α ([1]; at 1 μM): 41%
NC(=O)c1ccc2nc(N3CCN(Cc4cccc(Cl)c4)CC3)[nH]c2c1 [4-(3-chlorobenzyl)-piperazinyl-benzimidazole-5-carboxamide] | – | – | inhibition of p38β ([2]; compounds tested at 50 μM): 66%
COc1cc2[nH]ccc2cc1C(=O)N1CCC(Cc2ccc(F)cc2)CC1 [6-methoxy-(4-(4fluorobenzyl)piperidinyl)indole-5-carboxamide] | 159 nM | – | –
O=C(c1cc2ccccc2[nH]1)N1CCN(Cc2ccccc2)CC1 [Piperazinyl 2] | – | 27% | IC50 [1, 12]: > 30000 nM
O=C(c1c[nH]c2ccccc12)N1CCN(Cc2ccccc2)CC1 [Piperazinyl 3] | – | 77% | IC50 [1, 12]: 5440 nM
O=C(c1cccc2[nH]ccc12)N1CCN(Cc2ccccc2)CC1 [Piperazinyl 4] | – | 68% | –
O=C(c1ccc2[nH]ccc2c1)N1CCN(Cc2ccccc2)CC1 [Piperazinyl 5] | – | 59% | –
O=C(c1ccc2cc[nH]c2c1)N1CCN(Cc2ccccc2)CC1 [Piperazinyl 6] | – | 56% | IC50 [1, 12]: 4970 nM
O=C(c1cccc2cc[nH]c12)N1CCN(Cc2ccccc2)CC1 [Piperazinyl 7] | – | 7% | –
O=C(c1ccc2cc[nH]c2c1)N1CCC(Cc2ccccc2)CC1 [Piperidinyl 6, 4-benzylpiperidinyl-indole-6-carboxamide] | – | – | IC50 [3]: 450000 nM; IC50 [4]: > 500000 nM; percent inhibition of p38β activity [2, 11]: 92%; IC50 [5]: > 500000 nM; IC50 [6]: > 500000 nM; IC50 [7]: > 300000 nM; IC50 [8]: > 300000 nM; IC50 [9]: > 500000 nM
O=C(c1ccc2c(ccn2C(=O)c2ccncc2)c1)N1CCC(Cc2ccccc2)CC1 [drawing 82] | 871 nM | – | –
O=C(c1ccc2c(ccn2C(=O)c2ccncc2)c1)N1CCC(Cc2ccccc2)CC1 [drawing 83] | 405 nM | – | –

Further lines, with some results ahead:

IC50 [1, 10] | inhibition at 50 µM [2, 13] | Compound | further results
6570 nM | – | O=C(c1ccc2[nH]cc(CN3CCOCC3)c2c1)N1CCC(Cc2ccccc2)CC1 | –
489 nM | – | Cc1cc2c(Cl)c(C(=O)N3CCC(Cc4ccccc4)CC3)ccc2[nH]1 | inhibition at 0.2 µM ([1]; at 0.2 μM): 43%
199 nM | – | CCN(CC)CCCn1ccc2cc(C(=O)N3CCC(Cc4ccccc4)CC3)c(Cl)cc21 [1-(Diethylamino)-n-propyl-6-chloro-(4-benzylpiperidinyl)-indole-5-carboxamide] | –
635 nM | – | O=C(c1ccc2[nH]cnc2c1)N1CCC(Cc2ccccc2)CC1 [4-Benzyl-piperidinyl-benzimidazole-5-carboxamide] | inhibition at 50 µM ([2]; compounds tested at 50 μM, read-out: inhibition of p38β): 85%
64.6 nM | – | COc1cc2[nH]cc(C(=O)NCCN(C)C)c2cc1C(=O)N1CCC(Cc2ccccc2)CC1 [6-methoxy-3-(2-dimethylaminoethylamino)carboxamidyl-(4-benzylpiperidinyl)indole-5-carboxamide] | –
– | 12% | O=C(c1cc2ccccc2[nH]1)N1CCC(Cc2ccccc2)CC1 [Piperidinyl 2] | IC50 [1, 12]: 3260 nM
– | 96% | O=C(c1c[nH]c2ccccc12)N1CCC(Cc2ccccc2)CC1 [Piperidinyl 3] | IC50 [1, 12]: 200 nM
– | 96% | O=C(c1cccc2[nH]ccc12)N1CCC(Cc2ccccc2)CC1 [Piperidinyl 4] | IC50 [1, 12]: 200 nM
523 nM and 577 nM | 96% | O=C(c1ccc2[nH]ccc2c1)N1CCC(Cc2ccccc2)CC1 [Piperidinyl 5, 4-Benzylpiperidinyl-indole-5-carboxamide] | IC50 [1, 12]: 242 nM
– | 45% | O=C(c1cccc2cc[nH]c12)N1CCC(Cc2ccccc2)CC1 [Piperidinyl 7] | IC50 [1, 12]: > 30000 nM
